Test results taken from patent US4166864A, “Pesticidal unsymmetrical bis-arylcarbamate disulfide compounds” (Union Carbide Corporation, priority 1977, dated 1979).

Legend:
Type in all cases: in vivo
[1] = system: bean aphid (Aphis fabae Scop.); assay: Bean Aphid Foliage Spray Test; parameters: key: A: excellent control; B: partial control; C: no control; settings: 500 ppm foliage spray, 24 hour holding period
Procedure: (§1) Suspensions of the test compounds were prepared by dissolving one gram of compound in 50 milliliters of acetone in which had been dissolved 0.1 gram (10 percent of the weight of compound) of an alkylphenoxy polyethoxyethanol surfactant, as an emulsifying or dispersing agent. The resulting solution was mixed into 150 milliliters of water to give roughly 200 milliliters of a suspension containing the compound in finely divided form. The thus-prepared stock suspension contained 0.5 percent by weight of compound. The test concentrations in parts per million by weight employed in the tests described hereinbelow were obtained by appropriate dilutions of the stock suspension with water. The test procedures were as follows:
Adults and nymphal stages of the bean aphid (Aphis fabae Scop.) reared on potted dwarf nasturtium plants at […] and 50-70 percent relative humidity, constituted the test insects. For testing purposes, the number of aphids per pot was standardized to 100-150 by trimming plants containing excess aphids.
The test compounds were formulated by diluting the stock suspension with water to give a suspension containing 500 parts of test compound per million parts of final formulation.
The potted plants (one pot per compound tested) infested with 100-150 aphids, were placed on a revolving turntable and sprayed with 100-110 milliliters of test compound formulation by use of a DeVilbiss spray gun set at 40 psig. air pressure. This application, which lasted 25 seconds, was sufficient to wet the plants to run-off. As a control, 100-110 milliliters of a water-acetone-emulsifier solution containing no test compound were also sprayed on infested plants. After spraying, the pots were placed on their sides on a sheet of white standard mimeograph paper which had been previously ruled to facilitate counting. Temperature and humidity in the test room during the 24 hour holding period were 65°-70° F. and 50-70 percent, respectively. Aphids which fell onto the paper and were unable to remain standing after being uprighted were considered dead. Aphids remaining on the plants were observed closely for movement and those which were unable to move the length of the body upon stimulation by prodding were considered dead. Percent mortality was recorded for various concentration levels.
(§2) In these tests the pesticidal activity of the compounds against aphid, mite, Southerm Armyworm, Bean Beetle and house fly was rated as follows: […]

[2] = system: two-spotted mite (Tetranychus urticae Koch); assay: Mite Foliage Spray Test; parameters: key: A: excellent control; B: partial control; C: no control; settings: 500 ppm foliage spray, six days
Procedure: as §1
Adults and nymphal stages of the two-spotted mite (Tetranychus urticae Koch), reared on Tendergreen bean plants at 80±5 percent relative humidity, were the test organisms. Infested leaves from a stock culture were placed on the primary leaves of two bean plants six to eight inches in height, growing in a two-and-a-half inch clay pot. 150-200 Mites, a sufficient number for testing, transferred from the excised leaves to the fresh plants in a period of twenty four hours. Following the twenty four hour transfer period, the excised leaves were removed from the infested plants. The test compounds were formulated by diluting the stock suspension with water to give a suspension containing 500 parts of test compound per million parts of final formulation. The potted plants (one pot per compound) were placed on a revolving turntable and sprayed with 100-110 milliliters of test compound formulation by use of a DeVilbiss spray gun set at 40 psig. air pressure. This application, which lasted 25 seconds, was sufficient to wet the plants to run-off. As a control, 100=110 milliliters of a water solution containing acetone and emulsifier in the same concentrations as the test compound formulation, but containing no test compound, were also sprayed on infested plants. The sprayed plants were held at 80±5 percent relative humidity for six days, after which a mortality count of motile forms was made. Microscopic examination for motile forms was made on the leaves of the test plants. Any individual which was capable of locomotion upon prodding was considered living. […]
as §2

[3] = system: southern armyworm (Prodenia eridania, (Cram.)); assay: Southern Armyworm Leaf Spray Test; parameters: key: A: excellent control; B: partial control; C: no control; settings: 500 ppm leaf spray, three days
Procedure: as §1
Larvae of the southern arymworm (Prodenia eridania, (Cram.)), reared on Tendergreen bean plants at a temperature of 80°±5° F. and a relative humidity of 50±5 percent, constituted the test insects.
The test compounds were formulated by diluting the stock suspension with water to give a suspension containing 500 parts of test compound per million parts of final formulation. Potted Tendergreen bean plants of standard height and age were placed on a revolving turntable and sprayed with 100-110 milliliters of test compound formulation by use of a DeVilbiss spray gun set at 10 psig air pressure. This application, which lasted 25 seconds, was sufficient to wet plants to run-off. As a control, 100-110 milliliters of a water-acetone-emulsifier solution containing no test compound were also sprayed on infested plants. When dry, the paired leaves were separated and each one was placed in a 9 centimeter Petri dish lined with moistened filter paper. Five randomly selected larvae were introduced into each dish and the dishes were closed. The closed dishes were labeled and held at 80°-85° F. for three days. Although the larvae could easily consume the whole leaf within twenty-four hours, no more food was added. Larvae which were unable to move the length of the body, even upon stimulation by prodding, were considered dead. Percent mortality was recorded for various concentration levels.
as §2

[4] = system: Mexican bean beetle (Epilachna varivestis, Muls.); assay: Mexican Bean Beetle Leaf Spray Test; parameters: key: A: excellent control; B: partial control; C: no control; settings: 500 ppm leaf spray, three days
Procedure: as §1
Fourth instar larvae of the Mexican bean beetle (Epilachna varivestis, Muls.), reared on Tendergreen bean plants at a temperature of 80°±5° F. and 50±5 percent relative humidity, were the test insects.
The test compounds were formulated by diluting the stock suspension with water to give a suspension containing 500 parts of test compound per million parts of final formulation. Potted Tendergreen bean plants of standard height and age were placed on a revolving turntable and sprayed with 100-110 milliliters of test compound formulation by use of a DeVilbiss spray gun set at 10 psig air pressure. This application, which lasted 25 seconds, was sufficient to wet plants to run-off. As a control, 100-110 milliliters of a water-acetone-emulsifier solution containing no test compound were also sprayed on infested plants. When dry, the paired leaves were separated and each was placed in a 9 centimeter Petri dish lined with moistened filter paper. Five randomly selected larvae were introduced into each dish, and the dishes were closed. The closed dishes were labeled and held at a temperature of 80°±5° F. for three days. Although the larvae could easily consume the leaf within 24 to 48 hours, no more food was added. Larvae which were unable to move the length of the body, even upon stimulation, were considered dead.
as §2

[5] = system: house flies (Musca domestica, L.); assay: Fly Bait Test; parameters: key: A: excellent control; B: partial control; C: no control; settings: 500 ppm in sugar-solution bait, twenty four hours
Procedure: as §1
Four to six day old adult house flies (Musca domestica, L.) reared according to the specifications of the Chemical Specialties Manufacturing Association (Blue Book, McNair-Dorland Co., N.Y. 1954; pages 243-244, 261) under controlled conditions of 80°±5° F. and 50±5 percent relative humidity, were the test insects. The flies were immobilized by anesthetizing with carbon dioxide and twenty five immobilized individuals, males and females, were transferred to a cage consisting of a standard food strainer about five inches in diameter which was inverted over a wrapping-paper-covered surface. The test compounds were formulated by diluting the stock suspension with a 10 percent (by weight) sugar solution to give a suspension containing 500 parts of test compound per million parts of final formulation, by weight. Ten milliliters of the test formulation were added to a souffle cup containing a one-inch square of an absorbent cotton pad. This bait cup was introduced and centered on the blotting paper under the food strainer prior to admitting the anesthetized flies. The caged flies were allowed to feed on the bait for twenty four hours, at a temperature of 80°±5° F. and the relative humidity of 50±5 percent.
as §2

Bean = assay: Phytotoxicity Test, bean; parameters: key: 1: no perceptible injury; 2: intermediate degrees of injury based upon the number and extent to which leaves were injured; 3: intermediate degrees of injury based upon the number and extent to which leaves were injured; 4: intermediate degrees of injury based upon the number and extent to which leaves were injured; 5: the plant was dead; settings: 2500 ppm spray, rated after ten days
Procedure: (§3) Experiments were also conducted to determine the phytoxicity of representative compounds with respect to healthy fresh plants. Solutions of the compounds were prepared as described above to provide a concentration of 2500 parts per million of the test compound. The test plants were sprayed in accordance with the procedure described above for the Mite Foliage Spray Test so as to deliver approximately 100 milliliters of test solution to the leaves of each plant tested. The sprayed plants and controls were set aside for approximately one hour to allow the foliage to dry and were then placed in the greenhouse. After ten days the plants were visually inspected to determine the extent of foliage injury. A rating of 1 indicates no perceptible injury; 5 indicates the plant was dead and ratings of 2, 3 and 4 indicate intermediate degrees of injury based upon the number and extent to which leaves were injured.

Corn = assay: Phytotoxicity Test, corn; parameters: key: 1: no perceptible injury; 2: intermediate degrees of injury based upon the number and extent to which leaves were injured; 3: intermediate degrees of injury based upon the number and extent to which leaves were injured; 4: intermediate degrees of injury based upon the number and extent to which leaves were injured; 5: the plant was dead; settings: 2500 ppm spray, rated after ten days
Procedure: as §3

Tomato = assay: Phytotoxicity Test, tomato; parameters: key: 1: no perceptible injury; 2: intermediate degrees of injury based upon the number and extent to which leaves were injured; 3: intermediate degrees of injury based upon the number and extent to which leaves were injured; 4: intermediate degrees of injury based upon the number and extent to which leaves were injured; 5: the plant was dead; settings: 2500 ppm spray, rated after ten days
Procedure: as §3

Cotton = assay: Phytotoxicity Test, cotton; parameters: key: 1: no perceptible injury; 2: intermediate degrees of injury based upon the number and extent to which leaves were injured; 3: intermediate degrees of injury based upon the number and extent to which leaves were injured; 4: intermediate degrees of injury based upon the number and extent to which leaves were injured; 5: the plant was dead; settings: 2500 ppm spray, rated after ten days
Procedure: as §3

Soybean = assay: Phytotoxicity Test, soybean; parameters: key: 1: no perceptible injury; 2: intermediate degrees of injury based upon the number and extent to which leaves were injured; 3: intermediate degrees of injury based upon the number and extent to which leaves were injured; 4: intermediate degrees of injury based upon the number and extent to which leaves were injured; 5: the plant was dead; settings: 2500 ppm spray, rated after ten days
Procedure: as §3

| SMILES | Insecticidal activity rating, Aphid [1] | Miticidal activity rating, Mite [2] | Insecticidal activity rating, Southern Armyworm [3] | Insecticidal activity rating, Mexican Bean Beetle [4] | Insecticidal activity rating, Housefly [5] | Phytotoxicity, Bean (Bean) | Phytotoxicity, Corn (Corn) | Phytotoxicity, Tomato (Tomato) | Phytotoxicity, Cotton (Cotton) | Phytotoxicity, Soybean (Soybean) |
| --- | --- | --- | --- | --- | --- | --- | --- | --- | --- | --- |
| C#CCOc1ccccc1OC(=O)N(C)SSN(C)C(=O)Oc1cccc2c1OC(C)(C)C2 | A | C | A | A | A | 1 | 1 | 1 | 1 | 2 |
| CN(SSN(C)C(=O)Oc1cccc2ccccc12)C(=O)Oc1cccc2c1OC(C)(C)C2 | A | C | A | A | A | 1 | 1 | 1 | 1 | 1 |
| CSc1ccc(OC(=O)N(C)SSN(C)C(=O)Oc2cccc3c2OC(C)(C)C3)cc1C | A | C | A | A | A | 1 | 1 | 1 | 1 | 1 |
| Cc1cc(C)cc(OC(=O)N(C)SSN(C)C(=O)Oc2cccc3c2OC(C)(C)C3)c1 | A | C | A | A | A | 1 | 1 | 1 | 1 | 1 |
| CN(SSN(C)C(=O)Oc1cccc2c1OC(C)(C)C2)C(=O)Oc1cccc(N(C)C)c1 | A | C | A | A | A | 1 | 1 | 1 | 1 | 1 |
| CN(SSN(C)C(=O)Oc1cccc2c1OC(C)(C)C2)C(=O)Oc1ccc2c(c1)OCO2 | A | C | A | A | A | 1 | 1 | 1 | 1 | 1 |
| CN(SSN(C)C(=O)Oc1ccccc1C1SCCS1)C(=O)Oc1ccc(C(C)(C)C)cc1 | A | C | C | A | A | 1 | 1 | 1 | 1 | 1 |
